Laboratory results published in ChEMBL document CHEMBL1128776, “Palladium-catalyzed synthesis of (E)-5-(2-acylvinyl)-2-deoxyuridines and their antiviral and cytotoxic activities” (Bioorg Med Chem Lett, 1995).
Converted amounts (≈) assume the structure as drawn.

How the values were obtained:
E6SM [1] = assay: In vitro antiviral activity in E6 cell cultures against herpes simplex virus type 1 (HSV-1) TK- B2006; type: functional; details: Homo sapiens
HEL [2] = assay: Evaluated in vitro for antiviral activity in HeLa cell cultures against vesicular stomatitis virus (VSV); type: functional; details: Homo sapiens
E6SM [3] = assay: In vitro antiviral activity in E6 cell cultures against herpes simplex virus type 2 (HSV-2) strain G; type: functional; details: Homo sapiens
CCRF-CEM [4] = assay: Evaluated in vitro for cytostatic activity against CEM cells; type: functional, cell-based; details: Homo sapiens
HEL [5] = assay: Cytotoxic concentration required to reduce cell growth HEL cells (after 3 days) by 50 %; type: functional; details: Homo sapiens, 72 h
HEL [6] = assay: Evaluated in vitro for antiviral activity in human embryonic lung (HEL) cell cultures against TK - VZV strain OKA; type: functional, cell-based
Vero [7] = assay: Evaluated in vitro for antiviral activity in vero cell cultures against Parainfluenza virus type 3; type: functional; details: Chlorocebus sabaeus
HeLa = assay: Minimum cytotoxic concentration against HeLa cells; type: functional; details: Homo sapiens
CCRF-CEM [8] = assay: 50% effective concentration required to protect CEM cells against the cytopathogenicity of HIV-2; type: functional, cell-based; details: Homo sapiens
MOLT-4 = assay: Evaluated in vitro for cytostatic activity against human T-lymphocyte cells (Molt 4/C8); type: functional, cell-based
HEL [9] = assay: Evaluated in vitro for antiviral activity in human embryonic lung (HEL) cell cultures against TK- Varicella-Zoster virus (VZV) strain YS/R; type: functional, cell-based
HEL [10] = assay: Minimum cytotoxic concentration against human embryonic lung (HEL) cells; type: functional
E6SM [11] = assay: In vitro antiviral activity in E6 cell cultures against herpes simplex virus type 1 (HSV-1) TK- VMW 1837; type: functional; details: Homo sapiens
Vero [12] = assay: Evaluated in vitro for antiviral activity in vero cell cultures against Reovirus type 1; type: functional; details: Chlorocebus sabaeus
HEL [13] = assay: (§1) Evaluated in vitro for antiviral activity in human embryonic lung (HEL) cell cultures against cytomegalovirus (CMV) strain AD-169; type: functional
E6SM [14] = assay: Minimum cytotoxic concentration against E6SM cells; type: functional; details: Homo sapiens
CCRF-CEM [15] = assay: 50% effective concentration required to protect CEM cells against the cytopathogenicity of HIV-1; type: functional, cell-based; details: Homo sapiens
Vero [16] = assay: Evaluated in vitro for antiviral activity in vero cell cultures against forest virus; type: functional; details: Chlorocebus sabaeus
HEL [17] = assay: Evaluated in vitro for antiviral activity in HeLa cell cultures against polio virus type 1; type: functional; details: Homo sapiens
E6SM [18] = assay: In vitro antiviral activity in E6 cell cultures against vaccinia virus (VV); type: functional; details: Homo sapiens
E6SM [19] = assay: In vitro antiviral activity in E6 cell cultures against vesicular stomatitis virus (VSV); type: functional; details: Homo sapiens
HEL [20] = assay: Evaluated in vitro for antiviral activity in human embryonic lung (HEL) cell cultures against Varicella-Zoster virus (VZV) strain YS; type: functional, cell-based
HEL [21] = assay: Evaluated in vitro for antiviral activity in human embryonic lung (HEL) cell cultures against cytomegalovirus (CMV) strain Davis; type: functional, cell-based
FM3A = assay: Evaluated in vitro for cytostatic activity against murine mammary carcinoma cells (FM3A); type: functional, cell-based; details: Mus musculus
Vero [22] = assay: Minimum cytotoxic concentration against vero cells; type: functional; details: Chlorocebus sabaeus
HEL [23] = assay: Evaluated in vitro for antiviral activity in human embryonic lung (HEL) cell cultures against TK + VZV strain OKA; type: functional, cell-based
Vero [24] = assay: Evaluated in vitro for antiviral activity in vero cell cultures against Sindbis virus; type: functional; details: Chlorocebus sabaeus
E6SM [25] = assay: In vitro antiviral activity in E6 cell cultures against herpes simplex virus type 1 (HSV-1) strain KOS; type: functional; details: Homo sapiens
Vero [26] = assay: Evaluated in vitro for antiviral activity in vero cell cultures against Coxsackie virus type B4; type: functional; details: Chlorocebus sabaeus
L1210 = assay: Evaluated in vitro for cytostatic activity against murine leukemia cells (L1210); type: functional, cell-based; details: Mus musculus
HEL [27] = assay: Evaluated in vitro for antiviral activity in human embryonic lung (HEL) cell cultures against TK- VZV strain 07/1; type: functional, cell-based
HEL [28] = assay: Evaluated in vitro for antiviral activity in human embryonic lung (HEL) cell cultures against TK+ VZV strain OKA; type: functional, cell-based
E6SM [29] = assay: Evaluated in vitro for its antiviral activity in E6 cell cultures against vesicular stomatitis virus (VSV); type: functional; details: Homo sapiens
HEL [30] = assay: Evaluated in vitro for antiviral activity in human embryonic lung (HEL) cell cultures against […] TK- strain 07/1; type: functional, cell-based
E6SM [31] = assay: Evaluated in vitro for its antiviral activity in E6 cell cultures against herpes simplex virus type 1 (HSV-1) TK- VMW 1837; type: functional; details: Homo sapiens
E6SM [32] = assay: Evaluated in vitro for its antiviral activity in E6 cell cultures against herpes simplex virus type 2 (HSV-2) strain G; type: functional; details: Homo sapiens
E6SM [33] = assay: Evaluated in vitro for its antiviral activity in E6 cell cultures against herpes simplex virus type 1 (HSV-1) strain KOS; type: functional; details: Homo sapiens
E6SM [34] = assay: Evaluated in vitro for its antiviral activity in E6 cell cultures against vaccinia virus (VV); type: functional; details: Homo sapiens
E6SM [35] = assay: Evaluated in vitro for its antiviral activity in E6 cell cultures against herpes simplex virus type 1 (HSV-1) TK- B2006; type: functional; details: Homo sapiens
HEL [36] = assay: as §1; type: functional, cell-based
HEL [37] = assay: Evaluated in vitro for antiviral activity in human embryonic lung (HEL) cell cultures against TK+ Varicella-Zoster virus (VZV) strain YS; type: functional, cell-based

| Structure (SMILES) | MIC (E6SM [1]) [µg/mL] | MIC (HEL [2]) [µg/mL] | MIC (E6SM [3]) [µg/mL] | IC50 (CCRF-CEM [4]) [µg/mL] | CC50 (HEL [5]) [µg/mL] | MIC (Vero [7]) [µg/mL] | MCC (HeLa) [µg/mL] | EC50 (CCRF-CEM [8]) [µg/mL] | IC50 (HEL [9]) [µg/mL] | MCC (HEL [10]) [µg/mL] | MIC (Vero [12]) [µg/mL] | MCC (E6SM [14]) [µg/mL] | MIC (Vero [16]) [µg/mL] | MIC (HEL [17]) [µg/mL] | IC50 (HEL [20]) [µg/mL] | IC50 (HEL [21]) [µg/mL] | MCC (Vero [22]) [µg/mL] | MIC (Vero [24]) [µg/mL] | MIC (Vero [26]) [µg/mL] | IC50 (HEL [28]) [µg/mL] | also measured |
| --- | --- | --- | --- | --- | --- | --- | --- | --- | --- | --- | --- | --- | --- | --- | --- | --- | --- | --- | --- | --- | --- |
| O=C(/C=C/c1cn([C@H]2C[C@H](O)[C@@H](CO)O2)c(=O)[nH]c1=O)c1ccccc1 | > 10 | 70 (≈ 195 µM) | > 10 | 24 (≈ 67 µM) | 140 (≈ 391 µM) | > 200 | 20 | > 20 | > 20 | 50 | > 200 | 40 | > 200 | > 100 | > 20 | > 20 | 400 | > 200 | > 200 | – | IC50 (HEL [6]): > 20 µg/mL; IC50 (MOLT-4): 23 µg/mL (≈ 64.2 µM); MIC (E6SM [11]): > 10 µg/mL; MIC (HEL [13]): > 20 µg/mL; EC50 (CCRF-CEM [15]): > 20 µg/mL; MIC (E6SM [18]): > 10 µg/mL; MIC (E6SM [19]): > 10 µg/mL; IC50 (FM3A): 32 µg/mL (≈ 89.3 µM); IC50 (HEL [23]): > 20 µg/mL; MIC (E6SM [25]): > 10 µg/mL; IC50 (L1210): 30 µg/mL (≈ 83.7 µM) |
| COc1ccc(C(=O)/C=C/c2cn([C@H]3C[C@H](O)[C@@H](CO)O3)c(=O)[nH]c2=O)cc1 | > 10 | > 100 | > 10 | > 100 | > 200 | > 40 | 20 | > 40 | > 20 | 20 | > 40 | 40 | > 40 | > 100 | > 20 | > 5 | 100 | > 40 | > 40 | > 20 | IC50 (HEL [27]): > 20 µg/mL; IC50 (MOLT-4): > 100 µg/mL; MIC (E6SM [11]): > 10 µg/mL; MIC (HEL [13]): > 5 µg/mL; EC50 (CCRF-CEM [15]): > 40 µg/mL; MIC (E6SM [18]): > 10 µg/mL; MIC (E6SM [19]): > 10 µg/mL; IC50 (FM3A): > 100 µg/mL; MIC (E6SM [25]): > 10 µg/mL; IC50 (L1210): > 100 µg/mL |
| O=c1[nH]c(=O)n([C@H]2C[C@H](O)[C@@H](CO)O2)cc1/C=C/Br [BRIVUDINE] | – | > 400 | – | – | 150 (≈ 450 µM) | > 400 | > 400 | – | > 50 | > 50 | > 400 | > 400 | > 400 | > 400 | 0.002 (≈ 0.006 µM) | – | > 400 | > 400 | > 400 | 0.0008 (≈ 0.0024 µM) | MIC (E6SM [29]): > 400 µg/mL; IC50 (HEL [30]): 5 µg/mL (≈ 15 µM); MIC (E6SM [31]): > 400 µg/mL; MIC (E6SM [32]): 100 µg/mL (≈ 300 µM); MIC (E6SM [33]): 0.02 µg/mL (≈ 0.06 µM); MIC (E6SM [34]): 10 µg/mL (≈ 30 µM); MIC (E6SM [35]): > 400 µg/mL |
| Nc1ccn(C[C@@H](CO)OCP(=O)(O)O)c(=O)n1.O.O [CIDOFOVIR] | – | – | – | – | > 200 | – | – | – | 0.05 | > 50 | – | – | – | – | – | 0.075 | – | – | – | 0.065 | IC50 (HEL [36]): 0.06 µg/mL; IC50 (HEL [27]): 0.055 µg/mL; IC50 (HEL [37]): 0.09 µg/mL |
